Laboratory results: patent US5132291A, “Antivirals and methods for increasing the antiviral activity of AZT” (priority 1989, dated 1992)

Tests used:
[1] = Lymphoblast assay, effects on cell growth, CEM T-cell line; format: cell-based; details: human, cem cells, AICA riboside alone, read-out: reduction in T-cell growth
Procedure: Several lymphoblast lines were utilized in conjunction with varying doses of antiviral agents to determine their effects on cell growth. In this method a daily cell count over a period of time, post-addition of antiviral compounds, can be compared with the normal cell growth curve.
Two representative T-cell lines, SupT-1 and CEM, and a B-cell line, WI-L2, were grown to mid-log phase 5×10^5 cells/ml in 50 ml of RPMI 1640 (Irvine Scientific) supplemented with 10% heat-inactivated fetal calf serum (Gemini-Bioproducts) and 1% glutamine (Gibco) to standardize seeding conditions and to assure a population of logarithmically growing cells.
An appropriate number cf T-25 flasks (Corning) were seeded with evenly suspended cells at 0.5×10^5 cells/ml in 20 ml of fresh growth media. Including a control condition, each set of flasks was treated with a dose range of antiviral compound for each cell line. Each dose condition was repeated in triplicate. All flasks were incubated for 5 days at 37° C. in a 5% CO2 incubator.
Every 24 hours for 5 days, three 0.2 ml samples of each flask were diluted in 9.8 ml of isoton (Fisher Scientific) and counted on a cell counter (Coulter Co.). The average of each flask was recorded, and the average of each triplicate antiviral does was then averaged and recorded.

HIV-1 = assay: HIV syncitial forming assay using CEM-SS cells; format: cell-based
Text: The following cytomorphologic infectivity bioassay was used to characterize antiviral activity against HIV-1. In the following assay a single infectious unit of virus infects a single cell and initiates a focal expression of that infection, i.e., a syncitium. Since a single infectious unit leads to a discrete response, a linear relationship exists between the number of virally-induced cytopathic effects and the first order of virus concentration. Application of this procedure in assays for virus inactivation allows for evaluation of the candidate antiviral agent.
CEM-SS (syncitium-sensitive Leu 3a-positive CEM cell line) cells were grown in RPMI 1640 cell culture media (Irvine Scientific) supplemented with 10% heat-inactivated fetal bovine serum (Gemini Bioproducts) and 1% […] glutamine (Gibco). Log-phase cells were split 1:2 with the growth medium the day prior to setting up the assay to standardize plating conditions and to assure a population of logarithmically growing cells. Ninety-six-well plates (Costar) were pretreated with 50 μl of 50 μg/ml poly-1-lysine (MW=295,000 Sigma) "PLL") and were left at room temperature for 60 minutes. Residual PLL was removed with two washes of PBS. The plates were stored in the incubator until used.
On the day of the assay, the cells were counted and enough cells were harvested to plate each well with 5.0×10^4 cells per well in a volume of 200 μl (or 20 ml of […] was appropriate for each 96-well microtitre plate).
The cells were plated out on the PLL pre-treated microtitre plates at 5.0×10^4 cells/well in a volume of 200 μl. After allowing attachment for 30 minutes at 37° C. and 5% CO2, the antiviral agent(s) were added in the noted amounts and the treated plates were pre-incubated for 24 hours.
The HIV-1 virus stock (isolated from infected H-9 cells) was diluted in growth medium to yield 100 SFU (syncytial-forming units) per well. Diluted HIV-1 virus, 20 μl, was added to appropriate wells. All the plates were then incubated for 5 days at 37° C. and 5% CO2. On day 5 post-infection, the cells were given a 100 μl media change. […]

Structure (SMILES): NC(=O)c1ncn([C@@H]2O[C@H](CO)[C@@H](O)[C@H]2O)c1N [AICA riboside, 5-amino-1-β-D-ribofuranosyl-imidazole-4-carboxamide]
- inhibition at 500 µM [1]: 30 to 50%
- antiviral effect (number of syncitia) (HIV-1; AICA riboside 5 μM and 50 μM, 24 hour preincubation before HIV infection): antiviral effect
- antiviral effect with preincubation versus addition at the time of infection (HIV-1; CEM cells, HIV): more effective as an antiviral with preincubation
